Data set [1] deals with bean weevil Callosobruchus maculatus. In words: Pesticidal activity in a closed space on adult weevil (LC50). Format: in vivo. The protocol:
(§1) The pesticidal activity of the extracts is measured in a closed space on adult insects. Each value represents the mean of three experiments, each involving 30 insects representative of three different insect orders: • lepidoptera (the clothes moth Tineola bisselliella), • isoptera (the Saintonge termite Reticulitermes santonensis), and • coleoptera (the bean weevil Callosobruchus maculatus)

Data set [2] deals with clothes moth Tineola bisselliella. The data set can be described thus: whole plant or invertebrate. It is filed as in vivo. To be noted: for LC50: Tineola bisselliella; for insecticidal activity: closed space, insects tested. The method, then:
as §1

For data set [3] the following is noted: ambient temperature storage; cited from earlier work.
Where [4] appears, read: adult insects, closed space, 24 h of treatment, NQ = non-quantifiable due to the absence of activity, read-out: Weevil LC50.

≈ marks a conversion by molar mass, not a printed value. Where two headings read alike, the source gives them in different places.

For orientation: LC50 means the concentration that kills 50% of the test population.

As for `C=CCSSCC=C` [DAS2, diallyl disulfide], the LC50 in data set [1] (adult insects, closed space, 24 h, NQ = no activity, read-out: Weevil LC50 observed) is 0.5 µg/mL (≈ 3.42 µM); in data set [1] (setting [4]), 0.5 µg/mL (≈ 3.42 µM); in data set [1] (theoretical, from total DASn content compared with DAS2 activity, read-out: Weevil LC50 calculated), 0.5 µg/mL (≈ 3.42 µM); in data set [2] (24 h, read-out: Mite LC50), 0.02 µg/mL (≈ 0.137 µM); in data set [2] (24 h, read-out: Mite LC50 observed), 0.02 µg/mL (≈ 0.137 µM); in data set [2] (read-out: Mite LC50 calculated), 0.02 µg/mL (≈ 0.137 µM). Besides, in data set [2], the “insecticidal activity” value is reported as “show an insecticidal activity”.

For `C=CCS[S+]([O-])CC=C` (stereo not shown) [TiA2, allicin], the “stability at ambient temperature” value in data set [3] is recorded as “low stability”. In addition, the LC50 in data set [1] (setting [4]) is 0.16 µg/mL (≈ 0.986 µM). Moreover, the “insecticidal activity” value in data set [2] was “show an insecticidal activity”.
